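Five compound concentrations were applied to cells in 96-well plates for 48 hours; endpoints were derived by simple linear interpolation of the resulting dose-response curve. TGI marks complete inhibition of growth.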
Experiments:
Assay in all cases: NCI anticancer screen, dose series, 48 h
[1] = tested on: OVCAR-5 ovarian
[2] = tested on: PC-3 prostate
[3] = tested on: LOX IMVI melanoma
[4] = tested on: MDA-MB-435
[5] = tested on: UACC-257 melanoma
[6] = tested on: HOP-62 NSCLC
[7] = tested on: U251 CNS
[8] = tested on: HL-60(TB) leukemia
[9] = tested on: MDA-MB-231 breast
[10] = tested on: NCI-H522 lung
[11] = tested on: NCI-H23 lung
[12] = tested on: NCI-H226 lung
[13] = tested on: SK-MEL-5 melanoma
[14] = tested on: SK-MEL-2 melanoma
[15] = tested on: 786-0 renal
[16] = tested on: IGROV1 ovarian
[17] = tested on: MCF7 breast
[18] = tested on: SW-620 colon
[19] = tested on: M14 melanoma
[20] = tested on: TK-10 renal
[21] = tested on: SF-295 CNS
[22] = tested on: HOP-92 NSCLC
[23] = tested on: OVCAR-3 ovarian
[24] = tested on: T-47D breast
[25] = tested on: OVCAR-8 ovarian
[26] = tested on: NCI-H460 lung
[27] = tested on: HCC-2998 colon
[28] = tested on: MALME-3M melanoma
[29] = tested on: RPMI-8226 leukemia
[30] = tested on: MOLT-4 leukemia
[31] = tested on: UO-31 renal
[32] = tested on: NCI/ADR-RES ovarian
[33] = tested on: SNB-19 CNS
[34] = tested on: COLO 205 colon
[35] = tested on: K-562 leukemia
[36] = tested on: KM12 colon
[37] = tested on: HT29 colon
[38] = tested on: A549 NSCLC
[39] = tested on: SK-OV-3 ovarian
[40] = tested on: CAKI-1 renal
[41] = tested on: RXF 393 renal
[42] = tested on: SF-268 CNS
[43] = tested on: SN12C renal
[44] = tested on: OVCAR-4 ovarian
[45] = tested on: SF-539 CNS
[46] = tested on: SK-MEL-28 melanoma
[47] = tested on: MDA-N
[48] = tested on: HS 578T breast
[49] = tested on: EKVX NSCLC
[50] = tested on: HCT-116 colon
[51] = tested on: HCT-15 colon
[52] = tested on: SR leukemia
[53] = tested on: A498 renal
[54] = tested on: ACHN renal
[55] = tested on: SNB-75 CNS
[56] = tested on: DU-145 prostate
[57] = tested on: CCRF-CEM leukemia

COC(=O)c1cc(CC2Cc3cc4c(cc3C2)CCC4)cc2c1CCC2
TGI [1]: > 100 µM | TGI [2]: > 100 µM | TGI [3]: > 100 µM | TGI [4]: > 100 µM | TGI [5]: > 100 µM | TGI [6]: > 100 µM | TGI [7]: > 100 µM | TGI [8]: > 100 µM | TGI [9]: > 100 µM | TGI [10]: > 100 µM | TGI [11]: > 100 µM | TGI [12]: > 100 µM | TGI [13]: > 100 µM | TGI [14]: > 100 µM | TGI [15]: > 100 µM | TGI [16]: > 100 µM | TGI [17]: > 100 µM | TGI [18]: > 100 µM | TGI [19]: > 100 µM | TGI [20]: > 100 µM | TGI [21]: > 100 µM | TGI [22]: > 100 µM | TGI [23]: > 100 µM | TGI [24]: > 100 µM | TGI [25]: > 100 µM | TGI [26]: > 100 µM | TGI [27]: > 100 µM | TGI [28]: > 100 µM | TGI [29]: > 100 µM | TGI [30]: 55.7 µM | TGI [31]: > 100 µM | TGI [32]: > 100 µM | TGI [33]: > 100 µM | TGI [34]: > 100 µM | TGI [35]: > 100 µM | TGI [36]: > 100 µM | TGI [37]: > 100 µM | TGI [38]: > 100 µM | TGI [39]: > 100 µM | TGI [40]: > 100 µM | TGI [41]: > 100 µM | TGI [42]: > 100 µM | TGI [43]: > 100 µM | TGI [44]: > 100 µM | TGI [45]: > 100 µM | TGI [46]: > 100 µM | TGI [47]: > 100 µM | TGI [48]: > 100 µM | TGI [49]: > 100 µM | TGI [50]: > 100 µM | TGI [51]: > 100 µM | TGI [52]: 94 µM | TGI [53]: > 100 µM | TGI [54]: > 100 µM | TGI [55]: > 100 µM | TGI [56]: > 100 µM | TGI [57]: > 100 µM
